Results taken from PMC9000710, “Synthesis and Hemostatic Activity of New Amide Derivatives” (Molecules, 2022).

Experiments:
[1] = Hemolysis assay (stability of erythrocytes); assay type: cell-based, human; details: male, human, heparinized whole blood diluted with saline (erythrocytes); for hemolysis at 45 min, 5 mg/L / hemolysis at 120 min, 5 mg/L / hemolysis at 240 min, 5 mg/L: c 5 mg/L
Procedure: Heparinized whole blood was used from a healthy volunteer. The whole blood (10 mL) was diluted with saline solution (90 mL). For each UV-Vis measurement, 2.5 mL of diluted blood was used. For each blood sample, 1 mL of a saline solution containing hydrochlorides 1–8 at concentrations of 5, 50, and 500 mg/L was added. As a control were used blood samples with the addition of 1% solution of DMSO in saline and 1% solution of SDS in saline. In all cases, the measurements were repeated twice for each concentration. […] The cells were centrifuged, and the absorbance of the supernatant, which contained plasma and lysed erythrocytes, was measured at 540 nm. The percentage of lysis was calculated from a standard curve of lysed erythrocytes treated with SDS [52].

human blood plasma [2] = test: Prothrombin time (PT) clotting assay; assay type: biochemical
Procedure: (§1) Human blood plasma was isolated from fresh buffy coats (collected onto the citrate-dextrose solution—ACD) purchased from the Regional Centre of Blood Donation and Blood Treatment in Lodz, Poland. In the isolation procedure, the buffy coats (60 mL units) were divided into volumes of 10 mL and centrifuged (4000 rpm/15 min) in 15 mL tubes. Next, 1 mL solutions of each amide 1–8 were prepared in distilled water at concentrations of 10, 25, and 50 mg/L. Then, 450 μL of plasma and 50 μL of each amide at the tested concentrations were placed into 1.5 mL vials. The vials were vortexed (Vortex Biosan V-1 plus), incubated at 37 °C on a thermoblock (Dry Block Thermostat Biosan TDB-120), and analyzed using a Kselmed K-3002 OPTIC coagulometer (Grudziądz, Poland), based on the manufacturer’s protocols (described below). The control sample was native blood plasma, untreated with any of the examined substances.
(§2) Fifty microliters of control plasma and plasma samples treated with the amides were transferred to measuring cuvettes and placed in the thermoblock module (37 °C) of a coagulometer (KSELMED, K-3002 Optic). Then, 100 μL of Dia-PT reagent (DIAGON Kft. Hungary; cat. no. 81100) was added. Measurements were started immediately.

human blood plasma [3] = test: Activated partial thromboplastin time (aPTT) clotting assay; assay type: biochemical
Procedure: as §1
as §2, with “of the” for “of a”, “Then, 50” for “Then, 100”, “of Dia-APTT” for “of Dia-PT”, “no. 72048) was added. The mixture was incubated for 180 s at 37 °C. Finally, 50 μL of reagent Dia-CaCl2 (DIAGON Kft. Hungary; cat. no. 41192)” for “no. 81100)”

human blood plasma [4] = test: Thrombin time (TT) clotting assay; assay type: biochemical
Procedure: as §1
Both 100 μL of control plasma and plasma samples treated with the amides were transferred to measuring cuvettes, which were placed in the thermoblock module (37 °C) of the coagulometer (KSELMED K-3002 Optic). Then, 100 μL of thrombin solution (4.5 U/mL, in 0.9% NaCl; Biomed, Lublin, Poland) was added to the cuvette. Measurements were started immediately.

human blood plasma [5] = test: Clot formation and fibrinolysis (CFF) assay; assay type: biochemical; details: for Amax (maximum of fibrin clot absorbance at 360 nm) / VmaxC (of Fibrin Polymerization) / VmaxF (of Fibrin Clot Lysis): control plasma assumed as 100%, mean ± SD, n = 5–7
Text: The CFF assay enables analysis of both the blood plasma coagulation process and fibrinolysis efficiency. The thrombin enzyme in the reagent mixture initiates blood plasma fibrinogen polymerization, leading to an increase in absorbance in the sample until the maximal absorbance (Amax) is attained. The fibrinolytic activity of blood plasma is induced by the tissue-type plasminogen activator (t-PA). The activation of fibrinolysis in the tested samples leads to fibrin clot degradation and decreases the absorbance to the baseline.
Figure 11 An exemplary curve of blood plasma coagulation and clot lysis recorded during the clot formation and fibrinolysis (CFF) assay. The first step in the CFF test involves activation of the blood plasma coagulation cascade and fibrin clot formation (1). It is characterized by the maximal velocity of the fibrin polymerization parameter (VmaxC). The maximal absorbance (Amax) peak corresponds to the fibrin stabilization phase and is an indicator of fibrin clot thickness (2). The third step of the CFF assay covers the activation of fibrinolytic mechanisms and fibrin clot degradation (3) and is described by the maximal velocity of clot lysis (VmaxF).
Thrombin was purchased from BioMed (Lublin, Poland). A tissue-type plasminogen activator (Actilyse®) was purchased from Boehringer Ingelheim, Ingelheim am Rhein, Germany. Kinetic measurements were executed using a SpectrostarNano microplate spectrophotometer (BMG LabTech, Ortenberg, Germany).
Measurements were performed using a kinetic model, as described in our previous work. Briefly, blood plasma was preincubated with the examined substances (at final concentrations of 10, 25, and 50 mg/L) for 15 min at 37 °C. Then, 100 μL of blood plasma was added to microtiter plate wells, which was followed by 200 μL of the reagent mixture (0.75 U/mL thrombin, 225 ng/mL t-PA and 7.5 mM CaCl2) suspended in tris-buffered saline (0.05 M TBS, 0.9% NaCl; pH 7.4). Measurements of absorbance changes were started immediately and continued for 60 min at 37 °C, λ = 360 nm. The following parameters were used to determine the effects of the examined substances on the coagulation and fibrinolytic properties of the blood plasma: the maximal velocity of fibrinogen polymerization (VmaxC), which is an indicator of the plasma coagulation efficiency; the maximal absorbance (Amax), which is an indicator of the fibrin clot stabilization and its thickness; the maximal velocity of clot lysis (VmaxF), which is an indicator of blood plasma fibrinolytic activity.

Structure (SMILES) | hemolysis at 45 min, 5 mg/L ([1]; 45 min) [%] | hemolysis at 120 min, 5 mg/L ([1]; 120 min) [%] | hemolysis at 240 min, 5 mg/L ([1]; 240 min) [%] | hemolysis at 45 min, 50 mg/L ([1]; c 50 mg/L, 45 min) [%] | hemolysis at 120 min, 50 mg/L ([1]; c 50 mg/L, 120 min) [%] | hemolysis at 240 min, 50 mg/L ([1]; c 50 mg/L, 240 min) [%] | hemolysis at 45 min, 500 mg/L ([1]; c 500 mg/L, 45 min) [%] | PT Time [% of Control] (human blood plasma [2]; c 10 mg/L) | PT Time [% of Control] (human blood plasma [2]; c 25 mg/L) | PT Time [% of Control] (human blood plasma [2]; c 50 mg/L) | aPTT Time [% of Control] (human blood plasma [3]; c 10 mg/L) | aPTT Time [% of Control] (human blood plasma [3]; c 25 mg/L) | aPTT Time [% of Control] (human blood plasma [3]; c 50 mg/L) | TT Time [% of Control] (human blood plasma [4]; c 10 mg/L) | TT Time [% of Control] (human blood plasma [4]; c 25 mg/L) | TT Time [% of Control] (human blood plasma [4]; c 50 mg/L) | Amax (maximum of fibrin clot absorbance at 360 nm) (human blood plasma [5]; 10 mg/L) [%] | VmaxC (of Fibrin Polymerization) (human blood plasma [5]; 10 mg/L) [%] | VmaxF (of Fibrin Clot Lysis) (human blood plasma [5]; 10 mg/L) [%] | Amax (maximum of fibrin clot absorbance at 360 nm) (human blood plasma [5]; 25 mg/L) [%] | other results
Cl.NCC(=O)NCc1ccc(C(=O)O)cc1 [Amide 6, 4-((2-Aminoacetamido)methyl)benzoic acid hydrochloride] | 0.38 | 0.56 | 0.19 | 0 | 0.11 | 0.2 | 0.41 | 96.1 ± 4.4 % of Control | 95.8 ± 4.3 % of Control | 93.5 ± 7.1 % of Control | 96.1 ± 4.2 % of Control | 97.0 ± 3.5 % of Control | 98.3 ± 3.6 % of Control | 92.5 ± 3.0 % of Control | 92.3 ± 2.5 % of Control | 92.8 ± 4.2 % of Control | 105.45 ± 5.46 | 104.68 ± 3.05 | 98.41 ± 14.71 | 102.41 ± 5.56 | hemolysis at 120 min, 500 mg/L ([1]; c 500 mg/L, 120 min): 0.68%; hemolysis at 240 min, 500 mg/L ([1]; c 500 mg/L, 240 min): 0.31%; TT, effect versus control in words (human blood plasma [4]; all used concentrations (10, 25, 50 mg/L)): shorter TT than the control sample; VmaxC (of Fibrin Polymerization) (human blood plasma [5]; 25 mg/L): 103.10 ± 6.82%; VmaxF (of Fibrin Clot Lysis) (human blood plasma [5]; 25 mg/L): 100.06 ± 21.96%; Amax (maximum of fibrin clot absorbance at 360 nm) (human blood plasma [5]; 50 mg/L): 102.15 ± 2.46%; VmaxC (of Fibrin Polymerization) (human blood plasma [5]; 50 mg/L): 101.11 ± 4.77%; VmaxF (of Fibrin Clot Lysis) (human blood plasma [5]; 50 mg/L): 91.08 ± 15.49%; melting point: 235 to 238 °C
NCC(=O)NCC1CCC(C(=O)O)CC1 (centres unmarked) [Amide 7, 2-((((1s,4s)-4-Carboxycyclohexyl)methyl)amino)-2-oxoethanaminium chloride] | 0 | 0.21 | 0.21 | 0.41 | 0.97 | 0.64 | 0 | 95.4 ± 7.4 % of Control | 94.3 ± 9.7 % of Control | 95.3 ± 8.3 % of Control | 98.1 ± 4.6 % of Control | 99.3 ± 3.3 % of Control | 100.6 ± 4.9 % of Control | 97.2 ± 3.3 % of Control | 97.5 ± 2.5 % of Control | 96.9 ± 1.7 % of Control | 115.64 ± 11.61 | 106.86 ± 9.49 | 66.18 ± 21.32 | 120.06 ± 25.63 | hemolysis at 45 min, 50 mg/L ([1]; c 50 mg/L as printed in the third concentration block of amides 7 and 8, 45 min): 0%; hemolysis at 120 min, 50 mg/L ([1]; c 50 mg/L as printed in the third concentration block of amides 7 and 8, 120 min): 0.23%; hemolysis at 240 min, 50 mg/L ([1]; c 50 mg/L as printed in the third concentration block of amides 7 and 8, 240 min): 0.38%; VmaxC (of Fibrin Polymerization) (human blood plasma [5]; 25 mg/L): 104.39 ± 8.60%; VmaxF (of Fibrin Clot Lysis) (human blood plasma [5]; 25 mg/L): 62.99 ± 16.99 %; Amax (maximum of fibrin clot absorbance at 360 nm) (human blood plasma [5]; 50 mg/L): 113.54 ± 13.76 %; VmaxC (of Fibrin Polymerization) (human blood plasma [5]; 50 mg/L): 111.45 ± 8.07 %; VmaxF (of Fibrin Clot Lysis) (human blood plasma [5]; 50 mg/L): 87.27 ± 8.04%; decrease of VmaxF (human blood plasma [5]; concentration not given): 30–40%; Amax parameter, effect in words (human blood plasma [5]; full range of tested concentrations (10–50 µg/mL)): significantly higher
